{
  "source": "paper PMC12767106",
  "about": "“In Situ Assembly of Transformable Monopeptide on Activated Neutrophils Attenuates NETs‐Induced Hepatocellular Carcinoma Metastasis by Disrupting NE Nuclear Translocation” (Advanced Science, 2025)",
  "key": {"activated neutrophils": {"test_system": "activated neutrophils", "assay": "Recognition of activated versus resting neutrophils, flow cytometry of PpIX", "type": "cell-based, mouse", "conditions": "50 µM, 1 h, neutrophils activated with PMA 100 nM, n = 3"}, "Hepa1-6 cells [1]": {"test_system": "Hepa1-6 cells", "assay": "Cell proliferation (CCK-8) with medium from treated neutrophils", "type": "cell-based, mouse", "conditions": "CCK-8, medium from activated neutrophils treated with NPs; versus Control and NFTP-NPs groups", "experimental": "(§1) Submitted to Advanced Science\nFreshly isolated neutrophils were stimulated with PBS, PMA, PMA+NFTP-NPs, PMA+FTP-NPs, and PMA+NEi for 4 h to stimulate NETs formation. Cells were then centrifuged at 480g for 10 minutes. The supernatant (NETs rich media) was then centrifuged at 18000g for 15 mins to form a pellet. The obtained pellet contained the mixture of chromatins and proteins, which was then resuspended in cell culture media to treat cancer cells, which was collected and respectively named as resting neutrophils, Control, NFTP-NPs, FTP-NPs, and NEi, then stored at -80◦C for further use.\nResting neutrophils (Neu)-treated, Control (Neu+PMA)-treated, NFTP-NPs (Neu+PMA+NFTP-NPs)-treated, FTP-NPs (Neu+PMA+FTP-NPs)-treated, and NEi (Neu+PMA+NEi)-treated Hepa1-6/luc cells and Hepa1-6/luc cells (2×10^3cells/well) were seeded on 96-well plates. Cell proliferation was assessed using the Cell Counting Kit-8 (Biosharp, China) following the manufacturer’s instructions. The final optical density (OD) value was measured daily for 3 consecutive days using a microplate reader at 450 nm (Tecan Infinite M200, Switzerland). Each condition was performed in triplicate. […]"}, "Hepa1-6 cells [2]": {"test_system": "Hepa1-6 cells", "assay": "Scratch (wound healing) assay", "type": "cell-based, mouse", "conditions": "24 h, medium from activated neutrophils treated with NPs, mean ± s.d., n = 3", "experimental": "Cell migration and invasion assay\nTo produce cell gaps for cell scratch tests, Hepa1-6/luc cells were injected into culture inserts (IBIDI, Germany).\nAfter 24 hours, the cells were treated with Resting neutrophils, Control, NFTP-NPs, FTP-NPs, and NEi groups.\nCell migration was monitored during the overnight culture of the cells. […]\nMatrigel tube formation assay\nMurine C166 endothelial cells (3×10^4cells/well) were placed on 96-well plates coated with Matrigel (356231,\nCorning, New York, USA) and incubated with various treatments. […]\nIn vitro permeability assays and trans-endothelial invasion assays\nFor in vitro permeability assays, C166 cells were treated with Resting neutrophils, Control, NFTP-NPs, FTP-\nNPs, and NEi groups for 48 h to form an endothelial monolayer, and then Evans Blue (PHYGENE, China) was\nadded to the upper layer of the transwell filters (0.4 μm, Corning). […]\nAll the experiments were performed thrice. […]"}, "[3]": {"test_system": "Hepa1-6/luc HCC xenograft", "assay": "Subcutaneous Hepa1-6/luc tumor model, tumor growth", "type": "in vivo, mouse", "conditions": "C57BL/6J mice, 300 µM in 200 µL i.v. five times every two days; aPD-1 200 µg i.p. every 4 days, 3 doses; n = 5", "experimental": "as §1\nTotal RNA was extracted and purified using a miRNeasy Mini Kit (FOREGENE, China). Quantitative real-time polymerase chain reaction (qRT-PCR) was performed in triplicate in the ABI 7500 fast real-time PCR System (Applied Biosystems, USA). The mRNAs were normalized with 18s. The following primers were used for PCR detection: E-cadherin, N-cadherin, Vimentin, and α-catenin.\nWestern blot analysis was performed to evaluate the levels of relative proteins in Hepa1-6/luc cells and Neutrophils.38 To evaluate NETs release, the neutrophils were exposed to PMA, PMA+NFTP -NPs, and PMA+FTP-NPs for 12 h. Following treatment, the cells underwent three PBS washes for WB to measure the expression of CitH3 proteins (Cat. no. ab5103, Abcam, Cambridge, England , UK). Furthermore, to evaluate EMT of Hepa1-6/luc cells, the cells underwent three PBS washes for WB to measure the expression of E - cadherin (Abmart, China), N-cadherin (Abmart, China), Vimentin (Abmart, China) , and β-catenin (Abmart, […]\nIn vivo subcutaneously implanted tumor models\nThe C57BL/6J mice with subcutaneous Hepa1-6/luc xenografts (grew up to roughly 100 mm 3) were separated into four groups according to the different treatments to perform the in vivo tumor therapy. […] Throughout the experiment, the tumor volumes and body weight were measured once every four days. […]"}, "[4]": {"conditions": "mouse, in vivo"}},
  "data": [
    {"substance": "PpIX-GFFVLK-EAIPMSIPPEVK [FTP-NPs]", "values": [
      {"measurement": "PpIX fluorescence of activated neutrophils relative to resting neutrophils", "setting": "activated neutrophils", "value": "about 2.8 times"},
      {"measurement": "proliferation rate of Hepa1-6 cells", "setting": "Hepa1-6 cells [1]", "value": "much lower"},
      {"measurement": "wound healing rate", "setting": "Hepa1-6 cells [2]", "value": "5.2% ± 1.8%"},
      {"measurement": "tumor growth / increase in tumor volume", "setting": "[3]", "value": "significant efficacy in suppressing tumor growth"},
      {"measurement": "toxicity in mice (liver function, platelets, creatinine, blood cell count)", "setting": "[4]", "value": "nontoxic"}
    ]}
  ]
}
